Here are results for 24 molecules from US20240279237A1, “FUSED BICYCLIC HETEROARYL COMPOUNDS USEFUL AS NLRP3 INHIBITORS” (Hoffmann-La Roche Inc., priority 2021, published 2024).

pIC50: −log10 of the molar value.

For this assay, the target named is T1, NLRP3 (Homo sapiens, UniProt Q96P20).
T1 construct: Seed THP-1 cells (25,000 cells/well) containing 1.0 μg/ml LPS in 40 μl of RPMI medium; host or cells: THP-1 cells
In words: THP-1 Cells Pyroptosis Assay. It is filed as cell-based. The following applies: THP-1 cells with 1.0 μg/ml LPS; compound 3 hours; nigericin 5 μM 1 hr; resazurin readout. How it is done:
The cells were routinely passaged and grown to confluency (˜10^6 cells/ml). On the day of the experiment, THP-1 cells were harvested and resuspended into RPMI medium (without FBS). The cells were then counted and viability (>90%) checked by Trypan blue (Sigma #T8154). […] To this diluted cell solution was added LPS (Sigma #L4524) to give a 1 μg/ml Final Assay Concentration (FAC). 40 μl of the final preparation was aliquoted into each well of a 96-well plate. The plate thus prepared was used for compound screening.
The following method step-by-step assay was followed for compound screening. • 1. […] Incubate for 3 hours at 37° C., 5% CO2 • 4. Add 5 μl nigericin (Sigma #N7143) (FAC 5 μM) to all wells • 5. Incubate for 1 hr at 37° C., 5% CO2 • 6. At the end of the incubation period, spin plates at 300×g for 3 mins and remove supernatant • 7. Then add 50 μl of resazurin (Sigma #R7017) (FAC 100 μM resazurin in RPMI medium without FBS) and incubate plates for a further 1-2 hours at 37° C. and 5% CO2 • 8.

T1 sequence (Q96P20 whole entry): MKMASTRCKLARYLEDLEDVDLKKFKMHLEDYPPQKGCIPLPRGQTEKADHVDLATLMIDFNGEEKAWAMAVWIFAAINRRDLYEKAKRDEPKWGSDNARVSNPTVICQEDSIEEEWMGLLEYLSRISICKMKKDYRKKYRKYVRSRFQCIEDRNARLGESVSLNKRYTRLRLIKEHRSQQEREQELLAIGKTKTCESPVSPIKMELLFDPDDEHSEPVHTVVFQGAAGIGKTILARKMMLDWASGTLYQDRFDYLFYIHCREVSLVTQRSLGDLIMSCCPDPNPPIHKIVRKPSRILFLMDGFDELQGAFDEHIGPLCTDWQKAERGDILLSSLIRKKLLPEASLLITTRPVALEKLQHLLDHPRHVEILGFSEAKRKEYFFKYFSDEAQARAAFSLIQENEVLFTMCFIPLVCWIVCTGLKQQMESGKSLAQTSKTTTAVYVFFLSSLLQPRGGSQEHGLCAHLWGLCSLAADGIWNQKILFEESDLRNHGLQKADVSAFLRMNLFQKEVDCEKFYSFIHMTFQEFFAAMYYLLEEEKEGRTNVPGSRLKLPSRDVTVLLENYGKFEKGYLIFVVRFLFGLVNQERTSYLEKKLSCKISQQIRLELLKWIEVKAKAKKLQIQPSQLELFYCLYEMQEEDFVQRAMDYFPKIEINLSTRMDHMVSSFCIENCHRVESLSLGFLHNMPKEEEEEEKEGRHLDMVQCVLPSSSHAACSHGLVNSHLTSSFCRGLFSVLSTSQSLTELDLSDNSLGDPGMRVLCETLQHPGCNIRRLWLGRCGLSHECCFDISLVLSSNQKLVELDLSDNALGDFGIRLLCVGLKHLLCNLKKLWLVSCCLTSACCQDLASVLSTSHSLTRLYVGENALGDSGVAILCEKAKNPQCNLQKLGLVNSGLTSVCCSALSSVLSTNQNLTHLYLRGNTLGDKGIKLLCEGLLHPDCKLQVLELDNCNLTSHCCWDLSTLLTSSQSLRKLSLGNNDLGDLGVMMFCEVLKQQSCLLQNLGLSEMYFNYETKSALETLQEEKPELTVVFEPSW

In turn, `Cc1cc(C(F)(F)F)cc(O)c1-c1ccc2[nH]c(N3CCNCC3)nc2n1` [Example 8, 3-Methyl-2-(2-piperazin-1-yl-1H-imidazo[4,5-b]pyridin-5-yl)-5-(trifluoromethyl)phenol;2,2,2-trifluoroacetic acid] showed a negative logarithm of the IC50 (pIC50) of 6.52. Regarding `CCN1CCC[C@@H](Nc2nc3nc(-c4c(O)cc(Cl)cc4Cl)ccc3o2)C1` [Example 132, 3,5-Dichloro-2-[2-[[(3R)-1-ethyl-3-piperidyl]amino]oxazolo[4,5-b]pyridin-5-yl]phenol;2,2,2-trifluoroacetic acid], the negative-log IC50 (pIC50) was 9.15. As for `Cc1ccc(C#N)c(O)c1-c1ccc2oc(N[C@@H]3CCCN(C)C3)nc2n1` [Example 82, 2-Hydroxy-4-methyl-3-[2-[[(3R)-1-methyl-3-piperidyl]amino]oxazolo[4,5-b]pyridin-5-yl]benzonitrile;2,2,2-trifluoroacetic acid], the figure is 6.89. Then `CCN1CCC[C@@H](Nc2nc3nc(-c4c(O)cc(Cl)cc4C#N)ccc3o2)C1` [Example 23, 5-Chloro-2-[2-[[(3R)-1-ethyl-3-piperidyl]amino]oxazolo[4,5-b]pyridin-5-yl]-3-hydroxy-benzonitrile], with 8.38. Turning to “3-Methyl-2-[2-[[(2R)-1-methylazetidin-2-yl]methylamino]oxazolo[4,5-b]pyridin-5-yl]-5-(trifluoromethyl)phenol or 3-methyl-2-[2-[[(2S)-1-methylazetidin-2-yl]methylamino]oxazolo[4,5-b]pyridin-5-yl]-5-(trifluoromethyl)phenol [Example 66A]”, the pIC50 was 6.40. `CCN1CCC[C@@H](Nc2nc3nc(-c4c(C)cc(F)cc4O)ccc3o2)C1` [Example 45, 2-[2-[[(3R)-1-Ethyl-3-piperidyl]amino]oxazolo[4,5-b]pyridin-5-yl]-5-fluoro-3-methyl-phenol]: the negative logarithm of the IC50 (pIC50) was 9.05. Then `Cc1cc(Cl)cc(O)c1-c1ccc2oc(N(CCO)[C@@H]3CCCN(C)C3)nc2n1` [Example 98, 5-Chloro-2-[2-[2-hydroxyethyl-[(3R)-1-methyl-3-piperidyl]amino]oxazolo[4,5-b]pyridin-5-yl]-3-methyl-phenol], with 7.95; and `CCN1CCC[C@@H](Nc2nc3nc(-c4ccc(Cl)cc4O)c(Cl)cc3o2)C1` [Example 127, 5-Chloro-2-[6-Chloro-2-[[(3R)-1-ethyl-3-piperidyl]amino]oxazolo[4,5-b]pyridin-5-yl]phenol], with 7.69; and `CCN1CCC[C@@H](Nc2nc3nc(-c4c(O)cc(C#N)cc4Cl)ccc3o2)C1` [Example 107, 3-Chloro-4-[2-[[(3R)-1-ethyl-3-piperidyl]amino]oxazolo[4,5-b]pyridin-5-yl]-5-hydroxy-benzonitrile;2,2,2-trifluoroacetic acid], with 8.06.

Take `Cc1cc(Cl)cc(O)c1-c1ccc2oc(NC3CCC(CO)N(C)C3)nc2n1` (stereo not drawn) [Example 87, 5-Chloro-2-[2-[[6-(hydroxymethyl)-1-methyl-3-piperidyl]amino]oxazolo[4,5-b]pyridin-5-yl]-3-methyl-phenol;2,2,2-trifluoroacetic acid]: the pIC50 is 7.12. This pIC50 is 0.94 log units lower than that of the molecule before. The molecule `CCN1CCC[C@@H](Nc2nc3nc(-c4c(C)cccc4O)ccc3o2)C1` [Example 125, 2-[2-[[(3R)-1-Ethyl-3-piperidyl]amino]oxazolo[4,5-b]pyridin-5-yl]-3-methyl-phenol] had a negative logarithm of the IC50 (pIC50) of 8.52. Then `Cc1cc(C)c(-c2ccc3oc(N[C@@H]4CCCN(C)C4)nc3n2)c(O)c1` [Example 128, 3,5-Dimethyl-2-[2-[[(3R)-1-methyl-3-piperidyl]amino]oxazolo[4,5-b]pyridin-5-yl]phenol;2,2,2-trifluoroacetic acid], with 8.74; and `Cc1cc(S(C)(=O)=O)cc(O)c1-c1ccc2oc(N[C@@H]3CCCN(C)C3)nc2n1` [Example 89, 3-Methyl-2-[2-[[(3R)-1-methyl-3-piperidyl]amino]oxazolo[4,5-b]pyridin-5-yl]-5-methylsulfonyl-phenol;2,2,2-trifluoroacetic acid], with 6.27. Then `Cc1cc(C(F)(F)F)cc(O)c1-c1ccc2oc(N3CCCC(O)C3)nc2n1` (single isomer, unassigned) [Example 3B, (3S or 3R)-1-[5-[2-hydroxy-6-methyl-4-(trifluoromethyl)phenyl]oxazolo[4,5-b]pyridin-2-yl]piperidin-3-ol], with 7.54; and `CCN1CCC[C@@H](Nc2nc3nc(-c4c(C)cc(C#N)cc4O)cc(OC)c3o2)C1` [Example 111, 4-[2-[[(3R)-1-Ethyl-3-piperidyl]amino]-7-methoxy-oxazolo[4,5-b]pyridin-5-yl]-3-hydroxy-5-methyl-benzonitrile;2,2,2-trifluoroacetic acid], with 8.66; and `CCCN1CCC[C@@H](Nc2nc3nc(-c4c(C)cc(Cl)cc4O)ccc3o2)C1` [Example 46, 5-Chloro-3-methyl-2-[2-[[(3R)-1-propyl-3-piperidyl]amino]oxazolo[4,5-b]pyridin-5-yl]phenol], with 9.00. Turning to `Cc1cc(C(F)(F)F)cc(O)c1-c1ccc2oc(N3CCOC(CO)C3)nc2n1` (racemic) [Example 5, (rac)-[2-[2-(Hydroxymethyl)morpholin-4-yl]oxazolo[4,5-b]pyridin-5-yl]-3-methyl-5-(trifluoromethyl)phenol], the pIC50 is 7.50. Then `Cc1cc(C(F)(F)F)cc(O)c1-c1ccc2oc(N3CCOCC3)nc2n1` [Example 4, 3-Methyl-2-(2-morpholinooxazolo[4,5-b]pyridin-5-yl)-5-(trifluoromethyl)phenol], with 7.53; and `Cc1cc(C(F)(F)F)cc(O)c1-c1ccc2oc(NC[C@H]3C[C@](C)(O)C3)nc2n1` [Example 58, trans-2-[2-[(3-hydroxy-3-methyl-cyclobutyl)methylamino]oxazolo[4,5-b]pyridin-5-yl]-3-methyl-5-(trifluoromethyl)phenol], with 7.02. As for `CCN1CCC[C@@H](Nc2nc3nc(-c4c(C)cc(Cl)cc4O)cnc3o2)C1` [Example 113, 5-Chloro-2-[2-[[(3R)-1-ethyl-3-piperidyl]amino]oxazolo[4,5-b]pyrazin-5-yl]-3-methyl-phenol;2,2,2-trifluoroacetic acid], the figure is 9.30; as for `CCN1CCC[C@@H](Nc2nc3nc(-c4ccc(C(F)(F)F)cc4O)c(F)cc3[nH]2)C1` [Example 133, 2-[2-[[(3R)-1-Ethyl-3-piperidyl]amino]-6-fluoro-1H-imidazo[4,5-b]pyridin-5-yl]-5-(trifluoromethyl)phenol], 7.10. Then `CCN1CCC[C@@H](Nc2nc3nc(-c4c(C)cc(C(F)F)cc4O)ccc3o2)C1` [Example 122, 5-(Difluoromethyl)-2-[2-[[(3R)-1-ethyl-3-piperidyl]amino]oxazolo[4,5-b]pyridin-5-yl]-3-methyl-phenol;2,2,2-trifluoroacetic acid], with 9.00; and `Cc1cc(Cl)cc(O)c1-c1ccc2oc(NCc3ncc[nH]3)nc2n1` [Example 76, 5-Chloro-2-[2-(1H-imidazol-2-ylmethylamino)oxazolo[4,5-b]pyridin-5-yl]-3-methyl-phenol], with 6.84; and `Cc1cc(C(F)(F)F)cc(O)c1-c1ccc2oc(N[C@@H]3C[C@H]3N(C)C)nc2n1` [Example 55, 2-[2-[[(1R,2R)-2-(Dimethylamino)cyclopropyl]amino]oxazolo[4,5-b]pyridin-5-yl]-3-methyl-5-(trifluoromethyl)phenol], with 7.75.
